Paper PMC4823711, “Allosteric Partial Inhibition of Monomeric Proteases. Sulfated Coumarins Induce Regulation, not just Inhibition, of Thrombin” (Scientific Reports, 2016)
Where “and” joins values, the source holds several entries; their conditions need not be identical. Identical values can stand only once. Like-named read-outs stand apart in the source and are kept apart here.

Experiments:
Assay type in all cases: biochemical
thrombin [1] = target: T1, thrombin (Homo sapiens, UniProt P00734); assay: Thrombin inhibition in the presence of exosite 1 (HirP) and exosite 2 (UFH) ligands; design: 6 nM plasma α-thrombin; purchased Haematologic Technologies (Essex Junction, VT)
Experimental: Thrombin inhibition by 3g was examined in the presence of either HirP (exosite 1 ligand) or UFH (exosite 2 ligand). 3g was prepared in DMSO (0.010–50 μM) and thrombin (4–8 nM) were incubated at 25 °C with HirP (0–187 nM) or UFH (0–22.8 μM) in buffer (20 mM Tris-HCl, 100 mM NaCl, 2.5 mM CaCl2, 0.1% PEG 8000, pH 7.4). After 10 min, thrombin activity was measured using Spectrozyme TH hydrolysis assay, as described above. The slopes obtained (in triplicate) were fitted using equation 1 to calculate IC50,app, ∆Y, and HS. The IC50,app at each concentration of the competitor was also calculated using the Dixon-Webb relationship (equation 3) from the known affinities (Kcomp) of the competitor.

[2] = target: T2, wtTH (recombinant wild type thrombin) (Homo sapiens, UniProt P00734); assay: Inhibition of recombinant wild type thrombin; settings: pH 7.4, 25 °C
T2 construct: the recombinant wild-type thrombin control
Experimental: (§1) Chromogenic substrate hydrolysis assay was used to measure potency of inhibition, as previously reported. The assay was performed using Flexstation III (Molecular Devices, Sunnyvale, CA) by monitoring substrate hydrolysis at 405 nm. For thrombin and its mutants, 180 μL of buffer (20 mM Tris-HCl, 100 mM NaCl, 2.5 mM CaCl2, 0.1% (polyethylene glycol) PEG 8000, pH 7.4) was added to each well followed by 5 μL of 240 nM thrombin and 10 μL of sulfated coumarin in DMSO to give 0.002 to 250 μM final concentration (or 10 μL of DMSO alone). After incubation for 10 min at 25 °C, 5 μL of 2 mM Spectrozyme TH was added to each well simultaneously and allowed to react for 60 seconds at 25 °C while simultaneously monitoring the reaction to obtain the rate of increase in A405. Identical experimental conditions were used for reactions in the presence of antithrombin, except for 100 nM of antithrombin added prior to the addition of the substrate.

thrombin mutant R93A = target: T3, thrombin mutant R93A (Homo sapiens, UniProt P00734, R452A); assay: Inhibition of thrombin mutant R93A
T3 construct: a group of thrombin mutants containing replacement of either Arg or Lys present in exosite 2 to Ala
Experimental: as §1

thrombin [3] = target: T1, thrombin; assay: Michaelis-Menten kinetics of Spectrozyme TH hydrolysis by thrombin; design: 6 nM plasma α-thrombin; purchased Haematologic Technologies (Essex Junction, VT); settings: for VMAX: pH 7.4, 25 °C
Experimental: Four concentrations (0, 25, 187, and 2500 nM) of 3g were studied in triplicate where 3g was incubated with thrombin for 10 min in buffer (20 mM Tris-HCl, 100 mM NaCl, 2.5 mM CaCl2, 0.1% PEG 8000, pH 7.4) at 25 °C. Spectrozyme TH at various concentrations (0–250 μM) was added at each of the four 3g concentrations and the initial rate of hydrolysis was recorded from the increase in A405 as a function of time. This slope was fitted to the standard Michaelis-Menten equation to derive VMAX and KM of the reaction at each of the 3g concentrations.

factor Xa = target: T4, factor Xa (Homo sapiens, UniProt P00742); assay: Antithrombin inactivation of factor Xa in the presence of sulfated coumarin; settings: 0 or 220 nM 3g, pH 7.2, 25 °C
T4 construct: antithrombin, factor Xa and factor XIa were from Haematologic Technologies; purchased Haematologic Technologies (Essex Junction, VT); host or cells: human plasma
Experimental: The effect of 3g on the reaction of thrombin (or factor Xa) with antithrombin was studied under pseudo-first order conditions such that [AT]0 ≫ [T]0. A fixed concentration of 6 nM plasma α-thrombin in 20 mM Tris-HCl buffer, pH 7.2, containing 100 mM NaCl, 2.5 mM CaCl2 and 0.1% PEG 8000 at 25 °C was incubated for 128 min with final concentrations of 0, 75, 225, or 675 nM of 3g following which a fixed concentration of 100 nM of antithrombin was added and the reaction allowed to proceed. […] The initial rate of hydrolysis of the Spectrozymes were monitored from the linear increase in A405. The fractional residual enzyme activity at each time point was calculated from the slope, i.e., thrombin activity, measured at the start of the experiment and fitted by the standard exponential decay equation 6 to calculate the observed pseudo-first order rate constant, kOBS, at each concentration of 3g. The intrinsic second-order rate constant of antithrombin inhibition of thrombin (kINT) was calculated using equation 7 and plotted against the concentration of thrombin–3g complex, obtained from quadratic equation 8, to derive the kINT of antithrombin inhibition of thrombin–3g complex.

thrombin mutant R233A = target: T5, thrombin mutant R233A (Homo sapiens, UniProt P00734, R608A); assay: Inhibition of thrombin mutant R233A; settings: pH 7.4, 25 °C
T5 construct: a group of thrombin mutants containing replacement of either Arg or Lys present in exosite 2 to Ala
Experimental: as §1

T4 sequence (P00742 235-488 limits assumed): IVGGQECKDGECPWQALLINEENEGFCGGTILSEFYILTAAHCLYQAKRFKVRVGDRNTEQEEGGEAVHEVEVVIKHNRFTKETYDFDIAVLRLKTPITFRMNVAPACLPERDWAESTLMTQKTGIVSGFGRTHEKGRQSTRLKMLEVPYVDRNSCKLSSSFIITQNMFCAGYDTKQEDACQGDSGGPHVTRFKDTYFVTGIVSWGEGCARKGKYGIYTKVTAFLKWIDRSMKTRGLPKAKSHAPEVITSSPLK
T4 sequence (P00742 41-179 limits assumed): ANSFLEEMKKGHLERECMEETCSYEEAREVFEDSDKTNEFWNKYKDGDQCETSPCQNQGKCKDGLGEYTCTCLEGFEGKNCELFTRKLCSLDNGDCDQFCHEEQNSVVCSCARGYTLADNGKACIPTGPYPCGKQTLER

O=c1oc2cc(OCCCCn3cc(COc4ccc(-c5c(-c6ccccc6)c6cc(Cl)cc(Cl)c6oc5=O)cc4)nn3)ccc2c(-c2ccccc2)c1-c1ccc(OS(=O)(=O)O)cc1 [3g]
IC50 (thrombin [1]; [HirP] 0 nM, Dixon-Webb relationship, read-out: IC50,predicted): 240 nM
HS (thrombin [1]; [HirP] 0 nM, pH 7.4, 25 °C): 3.3
ΔY (thrombin [1]; [HirP] 0 nM, pH 7.4, 25 °C): 52 ± 2%
IC50 (thrombin [1]; [HirP] 0 nM, pH 7.4, 25 °C, read-out: IC50,app): 220 ± 20 nM
IC50 (thrombin [1]; [HirP] 25 nM, Dixon-Webb relationship, read-out: IC50,predicted): 450 nM
HS (thrombin [1]; [HirP] 25 nM, pH 7.4, 25 °C): 2.4
ΔY (thrombin [1]; [HirP] 25 nM, pH 7.4, 25 °C): 58 ± 1%
IC50 (thrombin [1]; [HirP] 25 nM, pH 7.4, 25 °C, read-out: IC50,app): 330 ± 20 nM
IC50 (thrombin [1]; [HirP] 187 nM, Dixon-Webb relationship, read-out: IC50,predicted): 670 nM
HS (thrombin [1]; [HirP] 187 nM, pH 7.4, 25 °C): 2.0
ΔY (thrombin [1]; [HirP] 187 nM, pH 7.4, 25 °C): 59 ± 6%
IC50 (thrombin [1]; [HirP] 187 nM, pH 7.4, 25 °C, read-out: IC50,app): 330 ± 60 nM
IC50 (thrombin [1]; [UFH] 0 μM, Dixon-Webb relationship, read-out: IC50,predicted): 170 nM
HS (thrombin [1]; [UFH] 0 μM, pH 7.4, 25 °C): 1.3
ΔY (thrombin [1]; [UFH] 0 μM, pH 7.4, 25 °C): 56 ± 3%
IC50 (thrombin [1]; [UFH] 0 μM, pH 7.4, 25 °C, read-out: IC50,app): 170 ± 20 nM
IC50 (thrombin [1]; [UFH] 11.4 μM, Dixon-Webb relationship, read-out: IC50,predicted): 290 nM
HS (thrombin [1]; [UFH] 11.4 μM, pH 7.4, 25 °C): 1.7
ΔY (thrombin [1]; [UFH] 11.4 μM, pH 7.4, 25 °C): 66 ± 5%
IC50 (thrombin [1]; [UFH] 11.4 μM, pH 7.4, 25 °C, read-out: IC50,app): 290 ± 30 nM
IC50 (thrombin [1]; [UFH] 22.8 μM, Dixon-Webb relationship, read-out: IC50,predicted): 450 nM
HS (thrombin [1]; [UFH] 22.8 μM, pH 7.4, 25 °C): 3.7
ΔY (thrombin [1]; [UFH] 22.8 μM, pH 7.4, 25 °C): 59 ± 3%
IC50 (thrombin [1]; [UFH] 22.8 μM, pH 7.4, 25 °C, read-out: IC50,app): 580 ± 30 nM
increase of IC50 in the presence of HirP (thrombin [1]; exosite 1 ligand HirP): 50%
HS [2]: 4.0
IC50 [2]: 413 ± 50 nM
ΔY [2]: 39 ± 3%
increase of inhibition potency in comparison to recombinant wild-type thrombin (thrombin mutant R93A; R93A mutant): 2.3 fold
HS (thrombin mutant R93A; R93A, pH 7.4, 25 °C): 1.3
IC50 (thrombin mutant R93A; R93A, pH 7.4, 25 °C): 154 ± 20 nM
ΔY (thrombin mutant R93A; R93A, pH 7.4, 25 °C): 51 ± 2%
VMAX (thrombin [3]; [3g] 25 nM): 52.4 ± 1.5 mAU/min
VMAX (thrombin [3]; [3g] 187 nM): 45.3 ± 1.1 mAU/min
VMAX (thrombin [3]; [3g] 2500 nM): 31.0 ± 0.9 mAU/min and 31.0 mAU/min
reduction of VMAX (thrombin [3]; at saturating levels of 3g): ≤ 50%
change in the second-order rate constant of antithrombin inhibition of factor Xa (factor Xa): did not induce any change
HS (thrombin mutant R233A): 2.0
IC50 (thrombin mutant R233A): 359 ± 70 nM
ΔY (thrombin mutant R233A): 33 ± 4%
